The assay has as its target recombinant, human, C-terminally-His tagged NAMPT (Homo sapiens, UniProt P43490). Put plainly: Time-Resolved Fluorescence Resonance Energy Transfer (TR-FRET) binding assay of NAMPT. The note with it: 6.8 nM NAMPT, 200 nM probe (Oregon Green 488-conjugated APO866), 1 nM Tb-anti-His antibody, 2-3 hours. The method, then: Determination of the utility of compounds having Formula (I) as binders to and inhibitors of NAMPT was performed using a Time-Resolved Fluorescence Resonance Energy Transfer (TR-FRET) binding assay.
Time-Resolved Fluorescence Resonance Energy Transfer (TR-FRET) Binding Assay of NAMPT
The assay was carried out in 18 uL low volume plates (Owens Corning) in reaction buffer (50 mM HEPES (NaOH), pH 7.5, 100 mM NaCl, 10 mM MgCl2, 1 mM DTT, 1% Glycerol) using 6.8 nM recombinant, human, C-terminally-His tagged NAMPT, 1 nM Tb-anti-His antibody (Invitrogen, Cat # PV5895), and 200 nM probe (Oregon Green 488-conjugated APO866; A-1251667.0). Plates were covered, and reactions were carried out for 2-3 hours. Plates were read with Envision (Laser Lantha low volume protocol) after 2 to 3 hours. Excitation was carried out at 337 nm, and the ratio of emission of Oregon Green (520 nm) to terbium (492 nm) was determined and used to calculate IC50 values of test compounds.

Drawing on US20120122924A1, “NAMPT INHIBITORS” (ABBOTT LABORATORIES, priority 2010, published 2012), this text covers IC50 for 27 compounds.

Chain of recombinant, human, C-terminally-His tagged NAMPT (P43490 whole entry): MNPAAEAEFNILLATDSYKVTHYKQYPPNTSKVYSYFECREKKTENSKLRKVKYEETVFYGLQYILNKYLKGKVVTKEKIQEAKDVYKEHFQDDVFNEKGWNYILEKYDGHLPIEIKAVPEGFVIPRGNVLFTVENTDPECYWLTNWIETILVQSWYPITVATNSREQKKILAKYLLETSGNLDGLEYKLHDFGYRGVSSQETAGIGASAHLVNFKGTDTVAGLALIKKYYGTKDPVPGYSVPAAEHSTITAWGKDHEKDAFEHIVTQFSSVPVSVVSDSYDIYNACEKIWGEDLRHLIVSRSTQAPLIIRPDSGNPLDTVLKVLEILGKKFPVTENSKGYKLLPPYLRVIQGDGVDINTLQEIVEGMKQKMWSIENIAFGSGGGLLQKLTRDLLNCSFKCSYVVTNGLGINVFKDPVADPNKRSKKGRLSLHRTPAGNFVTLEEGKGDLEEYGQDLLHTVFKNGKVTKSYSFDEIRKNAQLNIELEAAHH

On to `CCC(C)(C)C(=O)Nc1ccc(NC(=O)N2CCc3ccccc3C2)cc1` [Example 70, N-{4-[(2,2-dimethylbutanoyl)amino]phenyl}-3,4-dihydroisoquinoline-2(1H)-carboxamide], for which the IC50 (in general, the concentration needed to halve the response being measured) was found to be 109 nM.

For the compound `CC(C)(C)CC(=O)Nc1ccc(NC(=O)N2CCc3ccccc3C2)cc1` [Example 71, N-{4-[(3,3-dimethylbutanoyl)amino]phenyl}-3,4-dihydroisoquinoline-2(1H)-carboxamide], the half-maximal inhibitory concentration (IC50) turned out to be 2.75 nM.

With `CCCCCCC(=O)Nc1ccc(NC(=O)N2CCc3ccccc3C2)cc1` [Example 72, N-[4-(heptanoylamino)phenyl]-3,4-dihydroisoquinoline-2(1H)-carboxamide], the IC50 was determined as 16.8 nM.

For the compound `O=C(CCC(F)(F)F)Nc1ccc(NC(=O)N2CCc3ccccc3C2)cc1` [Example 73, N-{4-[(4,4,4-trifluorobutanoyl)amino]phenyl}-3,4-dihydroisoquinoline-2(1H)-carboxamide], the IC50 was determined as 33.2 nM.

Regarding `COCCOCC(=O)Nc1ccc(NC(=O)N2CCc3ccccc3C2)cc1` [Example 74, N-(4-{[(2-methoxyethoxy)acetyl]amino}phenyl)-3,4-dihydroisoquinoline-2(1H)-carboxamide], the half-inhibitory concentration (IC50) is 86.2 nM.

With `CSCCC(=O)Nc1ccc(NC(=O)N2CCc3ccccc3C2)cc1` [Example 76, N-(4-{[3-(methylthio)propanoyl]amino}phenyl)-3,4-dihydroisoquinoline-2(1H)-carboxamide], the IC50 was found to be 14.8 nM.

In the case of `O=C(CC1CCCC1)Nc1ccc(NC(=O)N2CCc3ccccc3C2)cc1` [Example 77, N-{4-[(cyclopentylacetyl)amino]phenyl}-3,4-dihydroisoquinoline-2(1H)-carboxamide], the IC50 is 5.16 nM.

Turning to `O=C(Nc1ccc(NC(=O)N2CCc3ccccc3C2)cc1)C1CCCCC1` [Example 78, N-{4-[(cyclohexylcarbonyl)amino]phenyl}-3,4-dihydroisoquinoline-2(1H)-carboxamide], the IC50 was 66.3 nM.

As for `O=C(CC1CCCCC1)Nc1ccc(NC(=O)N2CCc3ccccc3C2)cc1` [Example 79, N-{4-[(cyclohexylacetyl)amino]phenyl}-3,4-dihydroisoquinoline-2(1H)-carboxamide], the half-inhibitory concentration (IC50) amounted to 5.3 nM.

Regarding `O=C(Nc1ccc(NC(=O)N2CCc3ccccc3C2)cc1)c1ccccc1` [Example 80, N-[4-(benzoylamino)phenyl]-3,4-dihydroisoquinoline-2(1H)-carboxamide], the half-maximal inhibitory concentration (IC50) was 191 nM.

Regarding `Nc1ccc(CCC(=O)Nc2ccc(NC(=O)N3CCc4ccccc4C3)cc2)cc1` [Example 82, N-(4-{[3-(4-aminophenyl)propanoyl]amino}phenyl)-3,4-dihydroisoquinoline-2(1H)-carboxamide], the IC50 was found to be 49 nM.

As to `O=C(Nc1ccc(NC(=O)N2CCc3ccccc3C2)cc1)c1ccoc1` [Example 83, N-[4-(3-furoylamino)phenyl]-3,4-dihydroisoquinoline-2(1H)-carboxamide], the concentration for half-maximal inhibition (IC50) was determined as 269 nM.

On to `Cc1cc(C(=O)Nc2ccc(NC(=O)N3CCc4ccccc4C3)cc2)c(C)o1` [Example 84, N-{4-[(2,5-dimethyl-3-furoyl)amino]phenyl}-3,4-dihydroisoquinoline-2(1H)-carboxamide], for which the IC50 was 85.8 nM.

`O=C(Nc1ccc(NC(=O)N2CCc3ccccc3C2)cc1)c1ccsc1` [Example 85, N-{4-[(3-thienylcarbonyl)amino]phenyl}-3,4-dihydroisoquinoline-2(1H)-carboxamide]: the IC50 turned out to be 242 nM.

For `O=C(Nc1ccc(NC(=O)N2CCc3ccccc3C2)cc1)c1ccc[nH]1` [Example 86, N-{4-[(1H-pyrrol-2-ylcarbonyl)amino]phenyl}-3,4-dihydroisoquinoline-2(1H)-carboxamide], the IC50 is 377 nM.

Consider `O=C(Nc1ccc(NC(=O)N2CCc3ccccc3C2)cc1)c1cncs1` [Example 87, N-{4-[(1,3-thiazol-5-ylcarbonyl)amino]phenyl}-3,4-dihydroisoquinoline-2(1H)-carboxamide], for which the half-maximal inhibitory concentration (IC50) worked out at 116 nM.

`O=C(Nc1ccc(NC(=O)N2CCc3ccccc3C2)cc1)c1ccn[nH]1` [Example 88, N-{4-[(1H-pyrazol-5-ylcarbonyl)amino]phenyl}-3,4-dihydroisoquinoline-2(1H)-carboxamide]: the half-maximal inhibitory concentration (IC50) is 134 nM.

As for `O=C(Nc1ccc(NC(=O)N2CCc3ccccc3C2)cc1)c1cn[nH]c1` [Example 89, N-{4-[(1H-pyrazol-4-ylcarbonyl)amino]phenyl}-3,4-dihydroisoquinoline-2(1H)-carboxamide], the IC50 worked out at 203 nM.

Regarding `O=C(Nc1ccc(NC(=O)N2CCc3ccccc3C2)cc1)c1ccno1` [Example 90, N-{4-[(1,2-oxazol-5-ylcarbonyl)amino]phenyl}-3,4-dihydroisoquinoline-2(1H)-carboxamide], the IC50 was 314 nM.

As to `O=C(Cc1ccccn1)Nc1ccc(NC(=O)N2CCc3ccccc3C2)cc1` [Example 91, N-{4-[(pyridin-2-ylacetyl)amino]phenyl}-3,4-dihydroisoquinoline-2(1H)-carboxamide], the IC50 amounted to 16 nM.

Consider `CN(C)CCC(=O)Nc1ccc(NC(=O)N2CCc3ccccc3C2)cc1` [Example 92, N-{4-[(N,N-dimethyl-beta-alanyl)amino]phenyl}-3,4-dihydroisoquinoline-2(1H)-carboxamide], for which the 50% inhibitory concentration (IC50) came out at 5840 nM.

Take `O=C(CCN1CCCCC1)Nc1ccc(NC(=O)N2CCc3ccccc3C2)cc1` [Example 93, N-(4-{[3-(piperidin-1-yl)propanoyl]amino}phenyl)-3,4-dihydroisoquinoline-2(1H)-carboxamide]: the IC50 worked out at 530 nM.

With `O=C(CN1CCOCC1)Nc1ccc(NC(=O)N2CCc3ccccc3C2)cc1` [Example 94, N-{4-[(morpholin-4-ylacetyl)amino]phenyl}-3,4-dihydroisoquinoline-2(1H)-carboxamide], the IC50 worked out at 69.2 nM.

Take `O=C(CCN1CCOCC1)Nc1ccc(NC(=O)N2CCc3ccccc3C2)cc1` [Example 95, N-(4-{[3-(morpholin-4-yl)propanoyl]amino}phenyl)-3,4-dihydroisoquinoline-2(1H)-carboxamide]: the IC50 is 158 nM.

In the case of `CN1CCN(CCC(=O)Nc2ccc(NC(=O)N3CCc4ccccc4C3)cc2)CC1` [Example 96, N-(4-{[3-(4-methylpiperazin-1-yl)propanoyl]amino}phenyl)-3,4-dihydroisoquinoline-2(1H)-carboxamide], the IC50 was found to be 128 nM.

Regarding `O=C(Nc1ccc(C(F)(F)F)cc1)N1CCc2ccccc2C1` [Example 97, N-[4-(trifluoromethyl)phenyl]-3,4-dihydroisoquinoline-2(1H)-carboxamide], the IC50 worked out at 1490 nM.

As for `CS(=O)(=O)Nc1cccc2c1CCN(C(=O)Nc1ccc(NC(=O)CC3CCCC3)cc1)C2` [Example 98, N-{4-[(cyclopentylacetyl)amino]phenyl}-5-[(methylsulfonyl)amino]-3,4-dihydroisoquinoline-2(1H)-carboxamide], the IC50 was 3 nM.
